Data published in ChEMBL document CHEMBL1201862, “PubChem BioAssay data set” (2004).
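Where inhibition never reached the appropriate level, the endpoint shown equals the highest concentration tested. Otherwise, values were interpolated linearly from a five-concentration, 48-hour dose response in 96-well plates. GI50 is the concentration that inhibits growth by half.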 Activity calls are given as the source filed them. No stated cut-off is given here; in the data, active = GI50 up to about 1.1 µM and inactive = higher.

Legend:
Assay in all cases: DTP human tumour cell line panel, 48 h
786-0 = test system: 786-0
A498 = test system: A498
A549 = test system: A549
ACHN = test system: ACHN
DLD-1 = test system: DLD-1
DMS-273 = test system: DMS-273
EKVX = test system: EKVX
HCC 2998 = test system: HCC 2998
HCT-116 = test system: HCT-116
HCT-15 = test system: HCT-15
HOP-18 = test system: HOP-18
HOP-62 = test system: HOP-62
HT-29 = test system: HT-29
KM-20L2 = test system: KM-20L2
KM12 = test system: KM12
LOX IMVI = test system: LOX IMVI
LXFL 529 = test system: LXFL 529
M14 = test system: M14
Malme-3M = test system: Malme-3M
NCI-H226 = test system: NCI-H226
NCI-H23 = test system: NCI-H23
OVCAR-3 = test system: OVCAR-3
OVCAR-4 = test system: OVCAR-4
OVCAR-5 = test system: OVCAR-5
OVCAR-8 = test system: OVCAR-8
SF-295 = test system: SF-295
SF-539 = test system: SF-539
SK-MEL-28 = test system: SK-MEL-28
SK-MEL-5 = test system: SK-MEL-5
SN12C = test system: SN12C
SNB-19 = test system: SNB-19
SNB-78 = test system: SNB-78
SR = test system: SR
SW-620 = test system: SW-620
UACC-257 = test system: UACC-257
UACC-62 = test system: UACC-62
UO-31 = test system: UO-31
XF498 = test system: XF498
CAKI-1 = test system: CAKI-1
CCRF-CEM = test system: CCRF-CEM
COLO 205 = test system: COLO 205
DMS-114 = test system: DMS-114
HL-60 = test system: HL-60
HOP-92 = test system: HOP-92
IGROV-1 = test system: IGROV-1
K562 = test system: K562
M19-MEL = test system: M19-MEL
MOLT-4 = test system: MOLT-4
NCI-H460 = test system: NCI-H460
NCI-H522 = test system: NCI-H522
RPMI-8226 = test system: RPMI-8226
RXF 393 = test system: RXF 393
SF-268 = test system: SF-268
SK-OV-3 = test system: SK-OV-3
SNB-75 = test system: SNB-75
TK-10 = test system: TK-10
U-251 = test system: U-251
DU-145 = test system: DU-145
Hs-578T = test system: Hs-578T
MDA-MB-435 = test system: MDA-MB-435
SK-MEL-2 = test system: SK-MEL-2
T47D = test system: T47D

O=C1C(CN2CCCCC2)CCCC1CN1CCCCC1 (stereo unspecified)
GI50 (786-0): 7.29 µM (inactive)
GI50 (A498): > 100 µM (inactive)
GI50 (A549): > 100 µM (inactive)
GI50 (ACHN): 19.6 µM (inactive)
GI50 (DLD-1): 15.9 µM (inactive)
GI50 (DMS-273): 29.6 µM (inactive)
GI50 (EKVX): 19.9 µM (inactive)
GI50 (HCC 2998): > 100 µM (inactive)
GI50 (HCT-116): 14.5 µM (inactive)
GI50 (HCT-15): 14.2 µM
GI50 (HOP-18): 14.7 µM (inactive)
GI50 (HOP-62): > 100 µM (inactive)
GI50 (HT-29): 18.8 µM (inactive)
GI50 (KM-20L2): 13.3 µM (inactive)
GI50 (KM12): > 60.3 µM (inactive)
GI50 (LOX IMVI): 25.5 µM (inactive)
GI50 (LXFL 529): 15.6 µM (inactive)
GI50 (M14): 32.3 µM (inactive)
GI50 (Malme-3M): 5.82 µM (inactive)
GI50 (NCI-H226): > 100 µM (inactive)
GI50 (NCI-H23): > 45.1 µM (inactive)
GI50 (OVCAR-3): 17.1 µM (inactive)
GI50 (OVCAR-4): > 10 µM (inactive)
GI50 (OVCAR-5): > 59 µM (inactive)
GI50 (OVCAR-8): 14.9 µM (inactive)
GI50 (SF-295): > 100 µM (inactive)
GI50 (SF-539): > 43.2 µM (inactive)
GI50 (SK-MEL-28): 13.7 µM (inactive)
GI50 (SK-MEL-5): > 31.6 µM (inactive)
GI50 (SN12C): 26.2 µM (inactive)
GI50 (SNB-19): > 100 µM (inactive)
GI50 (SNB-78): 22.8 µM (inactive)
GI50 (SR): 8.93 µM (inactive)
GI50 (SW-620): 9.89 µM (inactive)
GI50 (UACC-257): 24.9 µM (inactive)
GI50 (UACC-62): > 40.6 µM (inactive)
GI50 (UO-31): > 42.2 µM (inactive)
GI50 (XF498): 18.4 µM (inactive)

COC(=O)C1Cc2c([nH]c3ccccc23)C=N1 (stereo unspecified)
GI50 (786-0): > 100 µM (inactive)
GI50 (A498): > 100 µM (inactive)
GI50 (A549): > 100 µM (inactive)
GI50 (ACHN): > 100 µM (inactive)
GI50 (CAKI-1): > 100 µM (inactive)
GI50 (CCRF-CEM): > 100 µM (inactive)
GI50 (COLO 205): > 100 µM (inactive)
GI50 (DLD-1): > 100 µM (inactive)
GI50 (DMS-114): > 100 µM (inactive)
GI50 (DMS-273): > 100 µM (inactive)
GI50 (EKVX): > 100 µM (inactive)
GI50 (HCC 2998): > 100 µM (inactive)
GI50 (HCT-116): > 100 µM (inactive)
GI50 (HCT-15): > 100 µM
GI50 (HL-60): > 100 µM (inactive)
GI50 (HOP-18): > 100 µM (inactive)
GI50 (HOP-62): > 100 µM (inactive)
GI50 (HOP-92): > 100 µM (inactive)
GI50 (HT-29): > 100 µM (inactive)
GI50 (IGROV-1): > 100 µM (inactive)
GI50 (K562): > 100 µM (inactive)
GI50 (KM-20L2): > 100 µM (inactive)
GI50 (KM12): 94.2 µM (inactive)
GI50 (LOX IMVI): 51.8 µM (inactive)
GI50 (LXFL 529): > 100 µM (inactive)
GI50 (M14): > 100 µM (inactive)
GI50 (M19-MEL): 74.8 µM (inactive)
GI50 (MOLT-4): > 100 µM (inactive)
GI50 (Malme-3M): > 100 µM (inactive)
GI50 (NCI-H226): > 100 µM (inactive)
GI50 (NCI-H23): > 100 µM (inactive)
GI50 (NCI-H460): > 100 µM (inactive)
GI50 (NCI-H522): > 100 µM (inactive)
GI50 (OVCAR-3): > 100 µM (inactive)
GI50 (OVCAR-4): > 100 µM (inactive)
GI50 (OVCAR-5): > 100 µM (inactive)
GI50 (OVCAR-8): > 100 µM (inactive)
GI50 (RPMI-8226): > 100 µM (inactive)
GI50 (RXF 393): > 100 µM (inactive)
GI50 (SF-268): > 100 µM (inactive)
GI50 (SF-295): > 100 µM (inactive)
GI50 (SF-539): > 100 µM (inactive)
GI50 (SK-MEL-28): > 100 µM (inactive)
GI50 (SK-MEL-5): > 100 µM (inactive)
GI50 (SK-OV-3): > 100 µM (inactive)
GI50 (SN12C): > 100 µM (inactive)
GI50 (SNB-19): > 100 µM (inactive)
GI50 (SNB-75): 60.8 µM (inactive)
GI50 (SNB-78): > 100 µM (inactive)
GI50 (SR): > 100 µM (inactive)
GI50 (SW-620): > 100 µM (inactive)
GI50 (TK-10): 59.3 µM (inactive)
GI50 (U-251): > 100 µM (inactive)
GI50 (UACC-257): > 100 µM (inactive)
GI50 (UACC-62): > 100 µM (inactive)
GI50 (UO-31): > 100 µM (inactive)

O=C1C(Cl)=C(N2CCN(CCOCCO)CC2)C(=O)c2c(O)ccc(O)c21
GI50 (A549): 2.71 µM (inactive)
GI50 (DLD-1): 0.195 µM (active)
GI50 (DMS-273): 1.05 µM (active)
GI50 (DU-145): 1.85 µM (inactive)
GI50 (HCC 2998): 1.93 µM (inactive)
GI50 (HCT-15): 0.292 µM
GI50 (HOP-18): 1.38 µM (inactive)
GI50 (HOP-92): 0.231 µM (active)
GI50 (Hs-578T): 2.64 µM (inactive)
GI50 (KM-20L2): 0.716 µM (active)
GI50 (LXFL 529): 0.224 µM (active)
GI50 (MDA-MB-435): 0.295 µM (active)
GI50 (NCI-H226): 1.99 µM (inactive)
GI50 (NCI-H460): 3.1 µM (inactive)
GI50 (NCI-H522): 0.174 µM (active)
GI50 (OVCAR-5): 1.79 µM (inactive)
GI50 (SF-539): 1.3 µM (inactive)
GI50 (SK-MEL-2): 0.404 µM (active)
GI50 (SNB-75): 1.41 µM (inactive)
GI50 (SNB-78): 0.363 µM (active)
GI50 (T47D): 0.438 µM (active)
GI50 (XF498): 0.557 µM (active)
